In patent US20140309188A1, “USE OF PHARMACEUTICAL COMPOSITION COMPRISING DEOXYNUCLEOSIDE AND NUCLEOSIDE FOR TREATMENT OF TUMOR” (priority 2011, published 2014):
Where “and” joins values, the source holds several entries; their conditions need not be identical. Equal entries are not always repeated.

Assays:
Format in all cases: cell-based
[1] = test system: Human colon cancer cell line HT-29; experiment: MTT growth inhibition on human colon cancer cell line HT-29; settings: 48 hours; concentrations same as Example 1 (total 10.0 mmol/L solution, 60 μL per 200 μL well)
Method: (§1) Human hepatoma cells BEL-7402 and human lung cancer cells PG provided by Institute of Biochemistry and Cell Biology, SIBS, CAS were cultured in the culture medium RPMI 1640 comprising 10% fetal bovine serum. The cells in the exponential growth phase were collected, digested with 0.25% trypsin, inoculated to a 96-well plate with each well having 3×10^3 cells, and then cultured in an incubator having 5% CO2 at 37° C. for 24 hours. Each experimental group was provided with 8 wells. 60 μL of a nucleoside solution having a total concentration of 10.0 mmol/L was added to each well, and the culture medium was replenished to ensure each well to have a volume of 200 μL. The control group was administered with 5-FU having the same concentration as the nucleoside solution. The obtained cells were diluted with serum-free medium and filtered with sterile microporous membrane having an aperture size of 0.22 μm. 48 hours later, cell morphology was observed and photographed by an inverted microscope. Thereafter, 20 μL of MTT solution having a concentration of 5 mg/mL was added to each well of the 96-well plate, which was further cultured in the incubator having 5% CO2 at 37° C. for 4 hours. After the culture, the supernate in the wells was removed. 150 μL of DMSO was added to each well. The 96-well plate was shaken for 10 minutes to facilitate the dissolution of the crystals. An automatic microplate reader (Thermo, Multiskan MK3) was employed to measure the absorbancy at 570 nm. Each experimental group was provided with 8 wells, and each experiment was repeated for three times. Table 1 lists the average value of the three experiments.
(§2) Survival rate of tumor cells (%)=measured OD value of experimental wells/OD value of wells of control group
(§3) Growth inhibition rate of tumor cells=100%−Survival rate of tumor cells (%)
The experimental groups and the control group were administered with different nucleosides or a combination thereof, as listed in Table 2. Human colon cancer cell line HT-29 was provided by the Institute of Basic Medical Sciences (IBMS) of the Chinese Academy of Medical Sciences (CAMS). The experimental method was the same as that in Example 1. The concentrations of the nucleoside combination, the single deoxynucleoside, and 5-FU are all the same as that in Example 1.

[2] = test system: Human glioma cell line SHG-44; experiment: MTT growth inhibition on human glioma cell line SHG-44; settings: concentrations same as Example 1
Method: as §1, with “After the culture, the supernate in the wells was removed. 150 μL of DMSO was added to each well. The 96-well plate was shaken for 10 minutes to facilitate the dissolution of the crystals.” left out, “Each experimental group was provided with 8 wells, and each experiment was repeated for three times. Table 1 lists the average value of the three experiments.” left out
Survival rate of tumor cells (%)=measured OD value of experimental wells/OD value of wells of control group […]

[3] = test system: Human pancreatic cancer cell line PANC-1; experiment: MTT growth inhibition on human pancreatic cancer cell line PANC-1; settings: different dosage ratios of dA, dG, C, total concentration same as Example 1
[4] = test system: Human breast cancer cell lines Bcap-37; experiment: MTT growth inhibition on human breast cancer cell lines Bcap-37; settings: concentrations same as Example 1
Method: as §1, §2, §3
The experimental groups and the control group were administered with different nucleosides or a combination thereof, as listed in Table 5. Human breast cancer cell lines Bcap-37 was provided by the Institute of Basic Medical Sciences (IBMS) of the Chinese Academy of Medical Sciences (CAMS). The experimental method was the same as that in Example 1. The concentrations of the nucleoside combination, the single nucleoside, and 5-FU are all the same as that in Example 1.

[5] = test system: human lung cancer cells PG; experiment: MTT growth inhibition on human lung cancer cells PG; settings: 48 hours, 60 μL of 10.0 mmol/L solution per 200 μL well, average of three experiments; for inhibition at 10000 µM (stock): Homo sapiens, read-out: Growth inhibition rate (%) on tumor cells PG
Method: as §1, §2, §3

[6] = test system: Human cervical carcinoma Hela; experiment: MTT growth inhibition on human cervical carcinoma Hela; settings: concentrations same as Example 1
[7] = test system: Human gastric cancer cell lines BGC823; experiment: MTT growth inhibition on human gastric cancer cell lines BGC823; settings: concentrations same as Example 1
Method: as §1, with “48 hours later, cell morphology was observed and photographed by an inverted microscope.” left out
as §2, §3
The experimental groups and the control group were administered with different nucleosides or a combination thereof, as listed in Table 4. Human gastric cancer cell lines BGC823 was provided by the Institute of Basic Medical Sciences (IBMS) of the Chinese Academy of Medical Sciences (CAMS). The experimental method was the same as that in Example 1. The concentrations of the nucleoside combination, the single deoxynucleoside, and 5-FU are all the same as that in Example 1.

[8] = test system: Human hepatoma cells BEL-7402; experiment: MTT growth inhibition on human hepatoma cells BEL-7402; settings: for Growth inhibition rate (%) on Bel-7402: Example 3, concentrations same as Example 1; for inhibition at 10000 µM (stock): Homo sapiens, Bel-7402, read-out: Growth inhibition rate (%) on tumor cells Bel-7402
Method: as §1, with “48 hours later, cell morphology was observed and photographed by an inverted microscope.” left out
as §2, §3
1. Experimental method: The experimental groups and the control group were administered with different nucleosides or a combination thereof, as listed in Table 3. Human hepatoma cells Bel-7402 was provided by Institute of Biochemistry and Cell Biology, SIBS, CAS. The experimental method was the same as that in Example 1. The concentrations of the nucleoside combination, the single nucleoside, and 5-FU are all the same as that in Example 1.

[9] = 48 hours, 60 μL of 10.0 mmol/L solution per 200 μL well, MTT, average of three experiments

Row | SMILES | Growth inhibition rate (%) on HT-29 [1] | Growth inhibition rate (%) on Bcap-37 ([4]; 48 hours) | Growth inhibition rate (%) on Bcap-37 ([4]; 72 hours) | Growth inhibition rate (%) on BGC823 ([7]; 48 hours) | Growth inhibition rate (%) on BGC823 ([7]; 72 hours) | inhibition at 10000 µM (stock) [5] | inhibition at 10000 µM (stock) [8, 9] | also measured
1 | O=c1[nH]cc(F)c(=O)[nH]1 [5-FU, reference compound] | 96% and 95% and 91% and 93% | 92% | 95% | 91% | 95% |  |  | Growth inhibition rate (%) on SHG-44 ([2]; 48 hours): 91%; Growth inhibition rate (%) on SHG-44 ([2]; 72 hours): 96%; Growth inhibition rate (%) on human pancreatic cancer cell line PANC-1 ([3]; 48 hours): 93%; Growth inhibition rate (%) on human pancreatic cancer cell line PANC-1 ([3]; 72 hours): 95%; Growth inhibition rate (%) on tumor cells PG [5]: 90%; Growth inhibition rate (%) on Hela ([6]; 48 hours): 92%; Growth inhibition rate (%) on Hela ([6]; 72 hours): 96%; Growth inhibition rate (%) on tumor cells Bel-7402 [8, 9]: 91%; Growth inhibition rate (%) on Bel-7402 ([8]; 48 hours): 91%; Growth inhibition rate (%) on Bel-7402 ([8]; 72 hours): 95%
2 | O=c1ccn([C@@H]2O[C@H](CO)[C@@H](O)[C@H]2O)c(=O)[nH]1 [U, uridine] |  | 58% | 67% |  |  | 52% | 49% | 
3 | Nc1ncnc2c1ncn2[C@H]1C[C@H](O)[C@@H](CO)O1 [dA, deoxyadenosine] | 86% |  |  | 89% | 91% | 94% | 96% | 
4 | Nc1ncnc2c1ncn2[C@@H]1O[C@H](CO)[C@@H](O)[C@H]1O [A, adenosine] |  |  |  |  |  | 84% | 86% | 
5 | Cc1cn([C@H]2C[C@H](O)[C@@H](CO)O2)c(=O)[nH]c1=O [T, thymidine] | 85% |  |  |  |  | 88% | 87% | 
6 | Nc1ccn([C@H]2C[C@H](O)[C@@H](CO)O2)c(=O)n1 [dC, deoxycytidine] | 89% |  |  |  |  | 84% | 86% | 
7 | Nc1nc2c(ncn2[C@@H]2O[C@H](CO)[C@@H](O)[C@H]2O)c(=O)[nH]1 [G, guanosine] |  |  |  |  |  | 87% | 83% | 
8 | Nc1ccn([C@@H]2O[C@H](CO)[C@@H](O)[C@H]2O)c(=O)n1 [C, cytidine] |  | 65% | 71% |  |  | 53% | 65% | 
9 | Nc1nc2c(ncn2[C@H]2C[C@H](O)[C@@H](CO)O2)c(=O)[nH]1 [dG, deoxyguanosine] | 91% |  |  | 85% | 90% | 96% | 95% | Growth inhibition rate (%) on Bel-7402 ([8]; 48 hours): 87%; Growth inhibition rate (%) on Bel-7402 ([8]; 72 hours): 93%
